Data taken from patent publication US7163940B2, “Pyrazolopyridinyl pyrimidine therapeutic compounds” (SmithKline Beecham Corporation, priority 2000, dated 2007).
pIC50: −log10 of the molar value.

System: not given
Assay: not given
Settings: not given

SMILES | melting point [°C]
CN(C)Cc1cc(-c2c(-c3ccc(F)cc3)nn3c(Cl)cccc23)nc(NC2CCCC2)n1 [Example 50, 4-[7-Chloro-2-(4-fluorophenyl)pyrazolo[1,5-α]pyridin-3-yl]-N-cyclopentyl-6-[(dimethylamino)methyl]-2-pyrimidinamine] | 68 to 75

System: HSV-1
Assay: HSV-1 replication in infected Vero 76 cells, viral DNA hybridization capture assay
Assay type: cell-based
Settings: Human alphaherpesvirus 1, Vero 76, HSV-1, Vero 76 cells, MOI=0.001, 40–48 hours incubation
Method: Vero 76 cells were maintained in MEM with Earle's salts, L-glutamine, 8% FBS (Hyclone, A-1111-L) and 100 units/mL Penicillin-100 μg/mL Streptomycin. For assay conditions, FBS was reduced to 2%. Cells are seeded into 96-well tissue culture plates at a density of 5×10^4 cells/well after being incubated for 45 min at 37° C. in the presence of HSV-1 or HSV-2 (MOI=0.001). Test compounds are added to the wells and the plates are incubated at 37° C. for 40–48 hours. Cell lysates are prepared as follows: media was removed and replaced with 150 μL/well 0.2 N NaOH with 1% Igepal CA 630 or NP-40. Plates were incubated up to 14 days at room temperature in a humidified chamber to prevent evaporation. • (b) Preparation of Detection DNA.
For the detection probe, a gel-purified, digoxigenin-labeled, […] PCR fragment of the HSV UL-15 sequence was utilized. PCR conditions included 0.5 μM primers, 180 μM dTP, 20 μM dUTP-digoxigenin (Boehringer Mannheim 1558706), 200 μM each of dATP, dCTP, and dGTP, 1×PCR Buffer II (Perkin Elmer), 2.5 mM MgCl2, 0.025 units/μL of AmpliTaq Gold polymerase (Perkin Elmer), and 5 ng of gel-purified HSV DNA per 100 μL. Extension conditions were 10 min at 95° C., followed by 30 cycles of 95° C. for 1 min, 55° C. for 30 sec, and 72° C. for 2 min. The amplification was completed with a 10-min incubation at 72° C. Primers were selected to amplify a 728 bp probe spanning a section of the HSV1 UL15 open reading frame (nucleotides 249–977). Single-stranded transcripts were purified with Promega M13 Wizard kits. The final product was mixed 1:1 with a mixture of 6 M GuSCN, 100 mM EDTA and 200 μg/mL herring sperm DNA and stored at 4° C. • (c) Preparation of Capture Plates.
The capture DNA plasmid (HSV UL13 region in pUC) was linearized by cutting with Xba I, denatured for 15 min at 95° C. and diluted immediately into Reacti-Bind DNA Coating Solution (Pierce, 17250, diluted 1:1 with TE buffer, pH 8) at 1 ng/μL 75 μL/well were added to Corning (#3922 or 9690) white 96-well plates and incubated at room temperature for at least 4 hrs before washing twice with 300 μL/well 0.2×SSC/0.05% Tween-20 (SSC/T buffer). The plates were then incubated overnight at room temperature with 150 μL/well 0.2 N NaOH, 1% IGEPAL and 10 μg/mL herring sperm DNA. • (d) Hybridization.
Twenty-seven (27) μL of cell lysate was combined with 45 μL of hybridization solution (final concentration: 3M GuSCN, 50 mM EDTA, 100 μg/ml salmon sperm DNA, 5× Denhardt's solution, 0.25×APE, and 5 ng of the digoxigenin-labeled detection probe). APE is 1.5 M NH4-acetate, 0.15 M ammonium phosphate, and 5 mM EDTA adjusted to pH 6.0. Mineral oil (50 μL) was added to prevent evaporation. The hybridization plates were incubated at 95° C. for 10 minutes to denature the DNA, then incubated at 42° C. overnight. The wells were washed 6× with 300 μL/well SSC/T buffer then incubated with 75 μL/well anti-digoxigenin-HRP-conjugated antibody (Boehringer Mannheim 1207733, 1:5000 in TE) for 30 min at room temperature. The wells were washed 6× with 300 μL/well with PBS/0.05% Tween-20 before 75 μL/well SuperSignal LBA substrate (Pierce) was added. The plates were incubated at room temperature for 30 minutes and chemiluminescence was measured in a Wallac Victor reader. • e) Results.
The following results were obtained for HSV-1.

SMILES | pIC50
CN(C)Cc1cc(-c2c(-c3ccc(F)cc3)nn3c(Cl)cccc23)nc(NC2CCCC2)n1 [Example 50, 4-[7-Chloro-2-(4-fluorophenyl)pyrazolo[1,5-α]pyridin-3-yl]-N-cyclopentyl-6-[(dimethylamino)methyl]-2-pyrimidinamine] | 5.30
Fc1ccc(-c2nn3c(NC4CCCC4)cccc3c2-c2ccnc(NCCCN3CCOCC3)n2)cc1 [Example 13, N-Cyclopentyl-2-(4-fluorophenyl)-3-(2-{[3-(4-morpholinyl)propyl]-amino}-4-pyrimidinyl)pyrazolo[1,5-α]pyridin-7-amine] | 5.22
CC(C)c1nccc(-c2c(-c3ccc(F)cc3)nn3c(Cl)cccc23)n1 [Example 77, 7-Chloro-2-(4-fluorophenyl)-3-(2-isopropylpyrimidin-4-yl)pyrazolo[1,5-α]pyridine] | < 4.70
CCCCNc1nccc(-c2c(-c3ccc(F)cc3)nn3c(NCCN4CCOCC4)cccc23)n1 [Example 47, 3-[2-(Butylamino)-4-pyrimidinyl]-2-(4-fluorophenyl)-N-[2-(4-morpholinyl)ethyl]pyrazolo[1,5-α]pyridin-7-amine] | 6.40
CCCCNc1nccc(-c2c(-c3ccc(F)cc3)nn3c(N4CCOCC4)cccc23)n1 [Example 36, N-Butyl-4-[2-(4-fluorophenyl)-7-(4-morpholinyl)pyrazolo[1,5-α]pyridin-3-yl]-2-pyrimidinamine] | 6.10
Fc1ccc(-c2nn3c(NC4CCCC4)cccc3c2-c2cc(COC3CCCCO3)nc(NC3CCCC3)n2)cc1 (stereo not drawn) [Example 16, N-Cyclopentyl-3-{2-(cyclopentylamino)-6-[(tetrahydro-2H-pyran-2-yloxy)methyl]-4-pyrimidinyl}-2-(4-fluorophenyl)pyrazolo[1,5-α]pyridin-7-amine] | 4.40
O=C(NC1CCCC1)c1cc(-c2c(-c3ccc(F)cc3)nn3c(Cl)cccc23)nc(NC2CCCC2)n1 [Example 74, 6-[7-Chloro-2-(4-fluorophenyl)pyrazolo[1,5-α]pyridin-3-yl]-N-cyclopentyl-2-(cyclopentylamino)pyrimidine-4-carboxamide] | < 4.70
Nc1cccc2c(-c3ccnc(NC4CCCC4)n3)c(-c3ccc(F)cc3)nn12 [Example 21, 3-[2-(Cyclopentylamino)-4-pyrimidinyl]-2-(4-fluorophenyl)pyrazolo[1,5-α]pyridin-7-amine] | 6.00
Fc1ccc(-c2nn3c(NC4CCCC4)cccc3c2-c2ccnc(NC3CCCC3)c2)cc1 [Example 29, N-Cyclopentyl-3-[2-(cyclopentylamino)-4-pyridinyl]-2-(4-fluorophenyl)pyrazolo[1,5-α]pyridin-7-amine] | 6.52
COc1ccc(Nc2cccc3c(-c4ccnc(NC5CCCC5)n4)c(-c4ccc(F)cc4)nn23)cc1 [Example 23, 3-[2-(Cyclopentylamino)-4-pyrimidinyl]-2-(4-fluorophenyl)-N-(4-methoxyphenyl)pyrazo[1,5-α]pyridin-7-amine] | 6.00
C=CCNc1cccc2c(-c3ccnc(NCCCC)n3)c(-c3ccc(F)cc3)nn12 [Example 54, N-Allyl-3-[2-(butylamino)-4-pyrimidinyl]-2-(4-fluorophenyl)pyrazolo[1,5-α]pyridin-7-amine] | 6.30
Fc1ccc(-c2nn3c(Br)cccc3c2-c2ccncc2)cc1 [Example 61, 7-Bromo-2-(4-fluorophenyl)-3-pyridin-4-ylpyrazolo[1,5-α]pyridine] | < 4.70
CCCCNc1cccc2c(-c3ccnc([S+](C)[O-])n3)c(-c3ccc(F)cc3)nn12 (stereo not drawn) [Example 37, N-Butyl-2-(4-fluorophenyl)-3-[2-(methylsulfinyl)-4-pyrimidinyl]-pyrazolo[1,5-α]pyridin-7-amine] | 4.82
CCCCNc1cccc2c(-c3ccnc(N4CCN(CCOC)CC4)n3)c(-c3ccc(F)cc3)nn12 [Example 42, N-Butyl-2-(4-fluorophenyl)-3-{2-[4-(2-methoxyethyl)-1-piperazinyl]-4-pyrimidinyl}pyrazolo[1,5-α]pyridin-7-amine] | 5.00
COC(=O)CNc1cccc2c(-c3cc(C)nc(NC4CCCC4)n3)c(-c3ccc(F)cc3)nn12 [Example 24, Methyl {[3-[2-(cyclopentylamino)-6-methyl-4-pyrimidinyl]-2-(4-fluorophenyl)pyrazolo[1,5-α]pyridin-7-yl]amino}acetate] | 5.00
CCCCNc1cccc2c(-c3ccnc(NCCN4CCOCC4)n3)c(-c3ccc(F)cc3)nn12 [Example 45, N-Butyl-2-(4-fluorophenyl)-3-(2-{[2-(4-morpholinyl)ethyl]amino}-4-pyrimidinyl)pyrazolo[1,5-α]pyridin-7-amine] | 5.30
CCCCNc1cccc2c(-c3ccnc(NCCCn4ccnc4)n3)c(-c3ccc(F)cc3)nn12 [Example 44, N-Butyl-2-(4-fluorophenyl)-3-(2-{[3-(1H-imidazol-1-yl)propyl]amino}-4-pyrimidinyl)pyrazolo[1,5-α]pyridin-7-amine] | 5.40
Fc1ccc(-c2nn3c(NC4CCCC4)cccc3c2-c2ccncc2)cc1 [Example 28, N-cyclopentyl-2-(4-fluorophenyl)-3-(4-pyridinyl)pyrazolo[1,5-α]pyridin-7-amine] | 5.70
